According to US20230011869A1 (Hoffmann-La Roche Inc., priority 2018, published 2023):
Where a name gives a salt, the structure may show the parent alone. Read-outs that look alike come from different tables or passages of the source.

System: Acinetobacter baumannii ATCC17978
Test: Antimicrobial susceptibility testing: 90% growth inhibitory concentration (IC90) determination, Iso-Sensitest broth
Type: cell-based
In short: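 A. baumannii ATCC17978 grown in Iso-Sensitest broth across 10 compound concentrations at 35±2 °C.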

[1] = Acinetobacter baumannii, ATCC17978, 16 h, read-out: ATCC17978 IC90, 90% growth inhibitory concentration, Acinetobacter baumannii ATCC17978, Iso-Sensitest broth, OD 600 nm over 16 h
[2] = 90% growth inhibitory concentration, Acinetobacter baumannii ATCC17978, Iso-Sensitest broth, OD 600 nm over 16 h, read-out: ATCC17978 IC90

SMILES	IC90 [2]	further results
COc1ccc(-c2cnc3c(Nc4ccc(C(=O)N5CCC(C(=O)N6CCNC(CO)C6)CC5)c(C)c4)nccn23)cc1F (stereo not drawn) [Example 53, (1-(4-((3-(3-fluoro-4-methoxyphenyl)imidazo[1,2-a]pyrazin-8-yl)amino)-2-methylbenzoyl)piperidin-4-yl)(3-(hydroxymethyl)piperazin-1-yl)methanone 2,2,2-trifluoroacetate]		IC90 [1]: 270 nM
COc1ccc(-c2cnc3c(Nc4ccc(C(=O)N5CCC(C(=O)NCC6(O)CCNC6)CC5)c(C)c4)nccn23)cc1F (stereo not drawn) [Example 54, 1-(4-((3-(3-fluoro-4-methoxyphenyl)imidazo[1,2-a]pyrazin-8-yl)amino)-2-methylbenzoyl)-N-((3-hydroxypyrrolidin-3-yl)methyl)piperidine-4-carboxamide 2,2,2-trifluoroacetate]		IC90 [1]: 370 nM
COc1ccc(-c2cnc3c(Nc4ccc(C(=O)N5CCC(C(=O)NCC(O)CN)CC5)c(C)c4)nccn23)cc1F (stereo not drawn) [Example 55, N-(3-amino-2-hydroxypropyl)-1-(4-((3-(3-fluoro-4-methoxyphenyl)imidazo[1,2-a]pyrazin-8-yl)amino)-2-methylbenzoyl)piperidine-4-carboxamide 2,2,2-trifluoroacetate]		IC90 [1]: 390 nM
COc1ccc(-c2cnc3c(Nc4ccc(C(=O)N5CCC(C(=O)N[C@@H]6CNC[C@H]6O)CC5)c(C)c4)nccn23)cc1F [Example 56, 1-(4-((3-(3-fluoro-4-methoxyphenyl)imidazo[1,2-a]pyrazin-8-yl)amino)-2-methylbenzoyl)-N-((3R,4R)-4-hydroxypyrrolidin-3-yl)piperidine-4-carboxamide 2,2,2-trifluoroacetate]		IC90 [1]: 220 nM
COc1ccc(-c2cnc3c(Nc4ccc(C(=O)N5CCC(C(=O)NC6CNC6)CC5)c(C)c4)nccn23)cc1F [Example 57, N-(azetidin-3-yl)-1-(4-((3-(3-fluoro-4-methoxyphenyl)imidazo[1,2-a]pyrazin-8-yl)amino)-2-methylbenzoyl)piperidine-4-carboxamide 2,2,2-trifluoroacetate]		IC90 [1]: 250 nM
COc1ccc(-c2cnc3c(Nc4ccc(C(=O)N5CCC(C(=O)NCC6(O)CNC6)CC5)c(C)c4)nccn23)cc1F [Example 58, 1-(4-((3-(3-fluoro-4-methoxyphenyl)imidazo[1,2-a]pyrazin-8-yl)amino)-2-methylbenzoyl)-N-((3-hydroxyazetidin-3-yl)methyl)piperidine-4-carboxamide 2,2,2-trifluoroacetate]		IC90 [1]: 250 nM
COc1ccc(-c2cnc3c(Nc4ccc(C(=O)N5CCC(C(=O)N[C@@H]6CCNC6)CC5)c(C)c4)nccn23)cc1F [Example 59, (R)-1-(4-((3-(3-fluoro-4-methoxyphenyl)imidazo[1,2-a]pyrazin-8-yl)amino)-2-methylbenzoyl)-N-(pyrrolidin-3-yl)piperidine-4-carboxamide 2,2,2-trifluoroacetate]		IC90 [1]: 230 nM
COc1ccc(-c2cnc3c(Nc4ccc(C(=O)N5CCC(C(=O)NCC6CNC6)CC5)c(C)c4)nccn23)cc1F [Example 60, N-(azetidin-3-ylmethyl)-1-(4-((3-(3-fluoro-4-methoxyphenyl)imidazo[1,2-a]pyrazin-8-yl)amino)-2-methylbenzoyl)piperidine-4-carboxamide 2,2,2-trifluoroacetate]		IC90 (read-out: ATCC17978 IC90, 90% growth inhibitory concentration, Acinetobacter baumannii ATCC17978, Iso-Sensitest broth, OD 600 nm over 16 h, 2,2,2-trifluoroacetate): 210 nM
COc1ccc(-c2cnc3c(Nc4ccc(C(=O)N5CCC(C(=O)NCCCN6CCC6)CC5)c(C)c4)nccn23)cc1F [Example 62, N-(3-(azetidin-1-yl)propyl)-1-(4-((3-(3-fluoro-4-methoxyphenyl)imidazo[1,2-a]pyrazin-8-yl)amino)-2-methylbenzoyl)piperidine-4-carboxamide]	160 nM	
COc1ccc(-c2cnc3c(Nc4ccc(C(=O)N5CCC(C(=O)NCC6CNC6)CC5)c(C)c4)nccn23)cc1F [Example 65, N-(azetidin-3-ylmethyl)-1-(4-((3-(3-fluoro-4-methoxyphenyl)imidazo[1,2-a]pyrazin-8-yl)amino)-2-methylbenzoyl)piperidine-4-carboxamide]	250 nM	
COc1ccc(-c2cnc3c(Nc4ccc(C(=O)N5CCC(C(=O)NCC6CNC6)CC5)c(C)c4)nccn23)c(F)c1F [Example 75, hydrochloride]		IC90 [1]: 160 nM
N#CCOc1ccc(-c2cnc3c(Nc4ccc(C(=O)N5CCC(C(=O)OCC6CNCCN6)CC5)c(Cl)c4)nccn23)c(F)c1F (stereo not drawn) [Example 98, piperazin-2-ylmethyl 1-[2-chloro-4-[[3-[4-(cyanomethoxy)-2,3-difluoro-phenyl]imidazo[1,2-a]pyrazin-8-yl]amino]benzoyl]piperidine-4-carboxylate trifluoroacetate]	85 nM	

Second part, led by results:

IC90 [2]	SMILES	further results
180 nM	COc1ccc(-c2cnc3c(Nc4ccc(C(=O)N5CCC(C(=O)NCCN6CCC6)CC5)c(C)c4)nccn23)cc1F [Example 61, N-(2-(azetidin-1-yl)ethyl)-1-(4-((3-(3-fluoro-4-methoxyphenyl)imidazo[1,2-a]pyrazin-8-yl)amino)-2-methylbenzoyl)piperidine-4-carboxamide]	
170 nM	COc1ccc(-c2cnc3c(Nc4ccc(C(=O)N5CCC(C(=O)N[C@@H]6CCNC6)CC5)c(C)c4)nccn23)c(F)c1F [Example 63, (R)-1-(4-((3-(2,3-difluoro-4-methoxyphenyl)imidazo[1,2-a]pyrazin-8-yl)amino)-2-methylbenzoyl)-N-(pyrrolidin-3-yl)piperidine-4-carboxamide hydrochloride]	
270 nM	COc1ccc(-c2cnc3c(Nc4ccc(C(=O)N5CCN(C(=O)CN(C)C)CC5)c(C)c4)nccn23)cc1F [Example 64, 2-(dimethylamino)-1-(4-(4-((3-(3-fluoro-4-methoxyphenyl)imidazo[1,2-a]pyrazin-8-yl)amino)-2-methylbenzoyl)piperazin-1-yl)ethanone]	
120 nM	Cc1cc(Nc2nccn3c(-c4ccc(OC(F)F)cc4)cnc23)ccc1C(=O)N1CCN(C2=NCCN2)CC1 [Example 67]	
190 nM	Cc1cc(Nc2nccn3c(-c4ccc(OC(F)F)cc4)cnc23)ccc1C(=O)N1CCC(C(=O)NCC2CNC2)CC1 [Example 68]	
110 nM	Cc1cc(Nc2nccn3c(-c4ccc(OC(F)F)cc4)cnc23)ccc1C(=O)N1CCN(C(=N)N)CC1 [Example 69]	
350 nM	COc1ccc(-c2cnc3c(Nc4ccc(C(=O)N5CCC(O)(CN)CC5)c(C)c4)nccn23)cc1F [Example 71, [4-(aminomethyl)-4-hydroxypiperidin-1-yl]-[4-[[3-(3-fluoro-4-methoxyphenyl)imidazo[1,2-a]pyrazin-8-yl]amino]-2-methylphenyl]methanone;2,2,2-trifluoroacetic acid]	
260 nM	Cc1cc(Nc2nccn3c(-c4ccc(OC(F)F)cc4)cnc23)ccc1C(=O)N1CCC(Cc2cnc[nH]2)CC1 [Example 72, (4-((1H-imidazol-4-yl)methyl)piperidin-1-yl)(4-((3-(4-(difluoromethoxy)phenyl)imidazo[1,2-a]pyrazin-8-yl)amino)-2-methylphenyl)methanone]	
330 nM	COc1ccc(-c2cnc3c(Nc4ccc(C(=O)N5CCN(C6CNC6)CC5)c(C)c4)nccn23)cc1F [Example 73, (4-(azetidin-3-yl)piperazin-1-yl)(4-((3-(3-fluoro-4-methoxyphenyl)imidazo[1,2-a]pyrazin-8-yl)amino)-2-methylphenyl)methanone hydrochloride]	
71 nM	Cc1cc(Nc2nccn3c(-c4ccc(OC(F)F)cc4)cnc23)ccc1C(=O)N1CCN(C(N)=O)CC1 [Example 74, 4-(4-((3-(4-(difluoromethoxy)phenyl)imidazo[1,2-a]pyrazin-8-yl)amino)-2-methylbenzoyl)piperazine-1-carboxamide]	
500 nM	Cc1cc(Nc2nccn3c(-c4ccc(OCC#N)c(F)c4F)cnc23)ccc1C(=O)N1CCC(CNC(=O)CO)CC1 [Example 91, N-[[1-[4-[[3-[4-(cyanomethoxy)-2,3-difluoro-phenyl]imidazo[1,2-a]pyrazin-8-yl]amino]-2-methyl-benzoyl]-4-piperidyl]methyl]-2-hydroxy-acetamide]	
89 nM	Cc1cc(Nc2nccn3c(-c4ccc(OCC#N)c(F)c4F)cnc23)ccc1C(=O)N1CCC(C(=O)N2CCNC(CO)C2)CC1 (stereo not drawn) [Example 95, 2-[2,3-difluoro-4-[8-[4-[4-[3-(hydroxymethyl)piperazine-1-carbonyl]piperidine-1-carbonyl]-3-methyl-anilino]imidazo[1,2-a]pyrazin-3-yl]phenoxy]acetonitrile;2,2,2-trifluoroacetic acid]	
290 nM	N#CCOc1ccc(-c2cnc3c(Nc4ccc(C(=O)N5CCC(C(=O)OCC6CNCCN6)CC5)c(Cl)c4)nccn23)c(Cl)c1F (stereo not drawn) [Example 96, piperazin-2-ylmethyl 1-[2-chloro-4-[[3-[2-chloro-4-(cyanomethoxy)-3-fluoro-phenyl]imidazo[1,2-a]pyrazin-8-yl]amino]benzoyl]piperidine-4-carboxylate trifluoroacetate]	
96 nM	Cc1cc(Nc2nccn3c(-c4ccc(OCC#N)c(F)c4Cl)cnc23)ccc1C(=O)N1CCC(C(=O)N2CCNC(CO)C2)CC1 (stereo not drawn) [Example 97, 2-[3-chloro-2-fluoro-4-[8-[4-[4-[3-(hydroxymethyl)piperazine-1-carbonyl]piperidine-1-carbonyl]-3-methyl-anilino]imidazo[1,2-a]pyrazin-3-yl]phenoxy]acetonitrile trifluoroacetate]	
140 nM	COc1ccc(-c2cnc3c(Nc4ccc(C(=O)N5CCC(C(=O)NCC(N)CO)CC5)c(C)c4)nccn23)cc1F (stereo not drawn) [Example 101, N-(2-amino-3-hydroxypropyl)-1-(4-((3-(3-fluoro-4-methoxyphenyl)imidazo[1,2-a]pyrazin-8-yl)amino)-2-methylbenzoyl)piperidine-4-carboxamide hydrochloride]	
